Results as given in patent publication US20220040263A1, “COMPANION DIAGNOSTIC FOR COMBINATION LENALIDOMIDE AND ERYTHROPOIETIN TREATMENT” (H. Lee Moffitt Cancer Center and Research Institute, Inc., priority 2016, published 2022).
Entries after “also recorded” stand apart in the source; their conditions may differ.

Assays:
[1] = test system: Jak2 and STAT5 phosphorylation in UT7 cells; assay: Jak2 and STAT5 phosphorylation in UT7 cells with JAK or Src kinase inhibitors (Western); format: cell-based
Protocol: 10×10^7 UT7 cells were serum starved then treated with SKI 606 or AG490 for 30 minutes, CC5013 for 2 hours, and stimulated with EPO (1 U/ml) for 10 minutes at 37° C. Cells were lysed and […] run on a 4-15% Gradient gel (Bio-rad). Antibodies included p-STAT5 (Upstate, 1:1000 in 5% TBS/milk), total STAT5 (Cell Signaling, 1:10000 in 5% TBS/milk), and p-Jak2 (Santa Cruz, 1:500 in 5% TBS/milk). Blots were developed with an ECL detection kit (Amersham).
To further evaluate the mechanism by which lenalidomide enhances the EPO-R signal, STAT5 activation was assessed in response to EPO+lenalidomide treatment using selective pharmacologic inhibitors of JAK (AG490) or Src ([…]) kinases [FIG. 4].

AML-EH5q cells = assay: Apoptosis by Annexin-V/PI flow cytometry in AML-EH5q cells; format: cell-based; details: AML-EH5q (5q-deleted) cells, 24 hours
Protocol: (§1) AML-EH5q (FIG. 8A) and U937 (FIG. 8B) cells were exposed to lenalidomide, thalidomide or vehicle at the concentrations indicated for 24 hours in IMDM and 20% FBS and apoptosis assessed by flow cytometry using Annexin-V/PI staining. Briefly, cells are incubated for 20 minutes at room temperature in 50 mM HEPES (pH 7.4) and 150 mM NaCl containing 2 mM calcium chloride with a mixture of 1 μg/mLAnnexin V-FITC (Boehringer Mannhein, Mannhein, Germany) and 2.5 μg/mL propidium iodide (PI; Sigma-Aldrich) before analysis.
(§2) The hematologic effects of lenalidomide could derive from dual effects that are karyotype-dependent, i.e., (1) the potentiation of erythropoiesis in non-del5q erythroid precursors, and (2) selective suppression of del5q clones. To confirm that lenalidomide is selectively cytotoxic to del-5q clones, an AML cell line transformed from an MDS patient with isolated 5q31 deletion was cultivated and the cell line successfully maintained in suspension culture with recombinant myeloid growth factor supplementation. This cell line [designated AML-EH5q] is an AML cell line that harbors the isolated 5q-deletion. […] To evaluate the selectivity of lenalidomide cytotoxic for del5q clones, apoptotic response to lenalidomide and thalidomide was compared in AML-EH5q and U937 (non-del5q) cells by flow cytometry. […] Viability was unaffected at all concentrations for both agents in U937 cells.

U937 (non-del5q) cells = assay: Apoptosis by Annexin-V/PI flow cytometry in U937 cells; format: cell-based; details: 24 hours, all concentrations
Protocol: as §1, §2

rhu-CD45 = target: T1, rhu-CD45 (Homo sapiens, UniProt P08575); assay: BIOMOL Green CD45 Tyrosine Phosphatase Assay; format: biochemical; details: 1 μM, recombinant CD45, substrate pp60c-Src
T1 construct: purchased Calbiochem
T1 sequence (P08575 26-1306): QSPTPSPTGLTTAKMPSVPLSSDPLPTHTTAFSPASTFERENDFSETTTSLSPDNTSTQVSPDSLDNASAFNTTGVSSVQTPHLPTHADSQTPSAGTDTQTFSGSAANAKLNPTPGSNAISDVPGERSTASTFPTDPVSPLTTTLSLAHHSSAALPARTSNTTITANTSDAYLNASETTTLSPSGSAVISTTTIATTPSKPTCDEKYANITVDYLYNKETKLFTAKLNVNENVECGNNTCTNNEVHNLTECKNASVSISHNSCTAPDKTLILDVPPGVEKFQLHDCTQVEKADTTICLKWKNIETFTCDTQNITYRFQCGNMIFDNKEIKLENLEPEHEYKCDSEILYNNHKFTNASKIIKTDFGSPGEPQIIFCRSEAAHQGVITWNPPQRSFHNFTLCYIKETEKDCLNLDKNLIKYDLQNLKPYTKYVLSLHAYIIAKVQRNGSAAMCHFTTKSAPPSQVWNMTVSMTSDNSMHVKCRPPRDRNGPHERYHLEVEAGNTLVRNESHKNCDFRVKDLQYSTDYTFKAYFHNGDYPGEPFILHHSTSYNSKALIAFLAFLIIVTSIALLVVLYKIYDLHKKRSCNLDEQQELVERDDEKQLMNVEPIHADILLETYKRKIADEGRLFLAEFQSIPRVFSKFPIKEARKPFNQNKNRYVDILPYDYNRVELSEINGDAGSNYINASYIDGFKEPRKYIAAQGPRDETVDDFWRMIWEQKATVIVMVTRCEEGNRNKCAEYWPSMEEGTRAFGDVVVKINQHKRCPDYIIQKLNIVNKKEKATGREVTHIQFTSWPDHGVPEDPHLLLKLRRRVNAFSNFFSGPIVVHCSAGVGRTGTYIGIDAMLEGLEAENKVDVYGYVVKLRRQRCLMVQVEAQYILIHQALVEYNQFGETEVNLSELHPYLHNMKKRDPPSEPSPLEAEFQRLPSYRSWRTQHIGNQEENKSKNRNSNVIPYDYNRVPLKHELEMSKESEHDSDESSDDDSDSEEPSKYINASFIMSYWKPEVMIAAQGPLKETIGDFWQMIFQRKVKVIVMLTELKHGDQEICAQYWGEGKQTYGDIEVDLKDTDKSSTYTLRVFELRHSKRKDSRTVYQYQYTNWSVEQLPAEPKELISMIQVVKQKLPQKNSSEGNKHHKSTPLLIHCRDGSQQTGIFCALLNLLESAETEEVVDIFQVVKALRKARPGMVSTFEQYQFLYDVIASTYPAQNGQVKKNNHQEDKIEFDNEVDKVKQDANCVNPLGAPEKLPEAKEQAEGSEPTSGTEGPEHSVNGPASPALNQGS
Protocol: CD45-specific PTP activity was assayed as outlined in the BIOMOL Green™ CD45 Tyrosine Phosphatase Assay Kit. Briefly, 75 U of rhu-CD45 (Calbiochem) was incubated for 1H at 37° C. with the indicated inhibitors (1 μM CC5013 and thalidomide, 100 μM Na Orthovanadate, and 50 μM RWJ-60475 (CD45-specific PTP inhibitor) in 1× assay buffer. The substrate pp60c-Src was added at 200 μM and incubated for 1H at 37° C. Samples were read on a plate reader at 620 nm. Percent PTP activity was calculated according to the equation (OD of test sample/OD of control)×100.
This notion is in agreement with findings that lenalidomide suppressed cytosolic release of Csk that is dependent upon dephosphorylation of the Cbp/PAG Csk docking site (Tyr314) by CD45. To determine if lenalidomide inhibits CD45 phosphatase, recombinant CD45 PTP inhibition by lenalidomide and thalidomide was compared to the pan-PTP inhibitor sodium orthovanadate and the CD45-selective inhibitor, RWJ-60475 using the Biomol CD45 phosphatase assay. […] [FIG. 7].

For `N#C/C(=C/c1ccc(O)c(O)c1)C(=O)NCc1ccccc1` [AG490], the “effect of kinase inhibitor on lenalidomide's potentiation of EPO-induced STAT5 phosphorylation” value [1] was “suppress” and the “effect of kinase inhibitor on lenalidomide-augmented EPO-induced Jak2-phosphorylation” value ([1]; inhibitor 30 minutes, CC5013 2 hours, EPO 1 U/ml 10 minutes) was “abrogated”.

In the case of `COc1cc(Nc2c(C#N)cnc3cc(OCCCN4CCN(C)CC4)c(OC)cc23)c(Cl)cc1Cl` [SKI-606], the “effect of kinase inhibitor on lenalidomide's potentiation of EPO-induced STAT5 phosphorylation” value [1] was “suppress”.

`O=C1CCC(N2C(=O)c3ccccc3C2=O)C(=O)N1` (stereo not drawn) [thalidomide] was tested, and the “induction of programmed cell death (apoptosis)” value (AML-EH5q cells) was “comparatively inactive”, the viability / apoptosis (U937 (non-del5q) cells) was “comparatively inactive; also recorded: unaffected” and the “inhibition of CD45 PTP activity” value (rhu-CD45) was “minimal inhibition”.
